What was measured:
[1] = biological target: Proto-oncogene tyrosine-protein kinase Src (Homo sapiens) (UniProt P12931); assay: Binding affinity to human recombinant flag-tag c-Src protein (86 to 536 residues) expressed in Escherichia coli BL21 (DE3) cells assessed as change in melting temperature at 1:5 ratio incubated for 25 mins by protein thermal shift assay
[2] = biological target: Proto-oncogene tyrosine-protein kinase Src (Homo sapiens) (UniProt P12931); assay: Inhibition of human recombinant flag-tagged c-Src protein (86 to 536 residues) catalytic activity expressed in Escherichia coli BL21 (DE3) cells at 50 uM using biotinylated TK-substrate peptide as substrate preincubated for 1 hr followed by substrate addition and measured after 1 hr by HTRF assay relative to control; conditions: time 2.0 hrs
[3] = biological target: Proto-oncogene tyrosine-protein kinase Src (Homo sapiens) (UniProt P12931); assay: Binding affinity to human recombinant flag-tag c-Src protein (86 to 536 residues) expressed in Escherichia coli BL21 (DE3) cells assessed as change in melting temperature at 1:20 ratio incubated for 25 mins by protein thermal shift assay
[4] = biological target: Proto-oncogene tyrosine-protein kinase Src (Homo sapiens) (UniProt P12931); assay: Binding affinity to human recombinant flag-tag c-Src protein (86 to 536 residues) expressed in Escherichia coli BL21 (DE3) cells assessed as change in melting temperature at 1:10 ratio incubated for 25 mins by protein thermal shift assay

Chain of Proto-oncogene tyrosine-protein kinase Src (Homo sapiens) (P12931 2-536 limits assumed): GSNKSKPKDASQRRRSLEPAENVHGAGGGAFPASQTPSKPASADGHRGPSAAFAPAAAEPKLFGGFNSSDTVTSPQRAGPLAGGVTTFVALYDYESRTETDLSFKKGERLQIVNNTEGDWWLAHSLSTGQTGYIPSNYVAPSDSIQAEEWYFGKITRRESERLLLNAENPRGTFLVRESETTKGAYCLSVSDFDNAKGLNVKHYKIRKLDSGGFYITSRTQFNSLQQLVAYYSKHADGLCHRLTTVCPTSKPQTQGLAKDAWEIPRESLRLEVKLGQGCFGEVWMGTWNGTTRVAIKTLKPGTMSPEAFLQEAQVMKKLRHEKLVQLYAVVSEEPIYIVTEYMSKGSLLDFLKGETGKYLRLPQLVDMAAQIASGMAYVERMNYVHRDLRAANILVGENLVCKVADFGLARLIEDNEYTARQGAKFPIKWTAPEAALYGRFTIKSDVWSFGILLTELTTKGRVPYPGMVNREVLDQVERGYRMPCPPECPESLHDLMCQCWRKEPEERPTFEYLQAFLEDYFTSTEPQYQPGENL

| ΔTm [1] [°C] | inhibition [2] [%] | ΔTm [3] [°C] | ΔTm [4] [°C] | SMILES |
| --- | --- | --- | --- | --- |
| 1.5 | > 60 | 3.3 | 2.56 | O=C(NC1CCCC1)C(c1ccc(F)cc1)N(C(=O)CCl)C1CC1 (stereo unspecified) |
|  | > 60 |  |  | O=C(NC1CCCC1)C(c1ccc(Cl)cc1)N(Cc1cccs1)C(=O)CCl (stereo unspecified) |
|  | > 60 |  |  | COc1ccc(C(C(=O)NC2CCCC2)N(CCC2=CCCCC2)C(=O)CCl)cc1 (stereo unspecified) |

— ChEMBL document CHEMBL5029171, “Dynamics of Post-Translational Modification Inspires Drug Design in the Kinase Family” (J Med Chem, 2021)
